According to US11771738B2 (Zoetis Services LLC, priority 2018, dated 2023):
Read-outs that look alike come from different tables or passages of the source.

What was measured:
Type in all cases: cell-based
[1] = test system: microfilariae of Dirofilaria immitis; test: Dirofilaria immitis, Microfilaria (DiMf) In Vitro Assay; conditions: Dirofilaria immitis, 72 h, read-out: DiMf MED, Minimum Effective Dose, D. immitis microfilariae motility, in vitro
D. immitis L4 larvae = test: Dirofilaria immitis, L4 Stage (DiL4) In Vitro Assay; conditions: for minimal effective concentration: Dirofilaria immitis, 72 h, read-out: DiL4 MED, Minimum Effective Dose, D. immitis L4 larvae motility, in vitro; for DiMf/DiL4: larval stage selectivity, ratio of DiMf MED to DiL4 MED
[2] = test system: third stage larvae of Haemonchus contortus; test: Haemonchus contortus, Larvae Stage 3 (HcL3) In Vitro Assay; conditions: Haemonchus contortus, 96 h
[3] = read-out: HcL3 MED, Haemonchus contortus third stage larvae in vitro, class mark appended to the Ex # in Table 3
[4] = read-out: HcL3 MED, Minimum Effective Dose, H. contortus third stage larvae, approximately 96 hours
[5] = read-out: HcL3 MED, approximately 96 hours incubation, multiple-resistant field isolate

Compound	minimal effective concentration [1] [µM]	minimal effective concentration (D. immitis L4 larvae) [µM]	DiMf/DiL4 (D. immitis L4 larvae)	minimal effective concentration [2, 3] [µM]	minimal effective concentration [2, 4] [µM]	minimal effective concentration [2, 5] [µM]	minimal effective concentration ([2]; read-out: HcL3 MED (symbol after Ex#), approximately 96 hours incubation, multiple-resistant field isolate) [µM]
CC(C)C[C@H]1C(=O)O[C@H](Cc2ccc(Cc3ccco3)cc2)C(=O)N(C)[C@@H](CC(C)C)C(=O)O[C@H](C)C(=O)N(C)[C@@H](CC(C)C)C(=O)O[C@H](Cc2ccc(Cc3ccco3)cc2)C(=O)N(C)[C@@H](CC(C)C)C(=O)O[C@H](C)C(=O)N1C [Example 3-8, (3S,6R,9S,12R,15S,18R,21S,24R)-6,18-bis(4-(furan-2-ylmethyl)benzyl)-3,9,15,21-tetraisobutyl-4,10,12,16,22,24-hexamethyl-1,7,13,19-tetraoxa-4,10,16,22-tetraazacyclotetracosan-2,5,8,11,14,17,20,23-octaone]	0.01	0.0003	33.3	< 1	1	≤ 1	–
COc1cc(C)c(Cc2ccc(C[C@H]3OC(=O)[C@H](CC(C)C)N(C)C(=O)[C@@H](C)OC(=O)[C@H](CC(C)C)N(C)C(=O)[C@@H](Cc4ccccc4)OC(=O)[C@H](CC(C)C)N(C)C(=O)[C@@H](C)OC(=O)[C@H](CC(C)C)N(C)C3=O)cc2)cn1 [Example 4-126, (3S,6R,9S,12R,15S,18R,21S,24R)-6-benzyl-3,9,15,21-tetraisobutyl-18-(4-((6-methoxy-4-methylpyridin-3-yl)methyl)benzyl)-4,10,12,16,22,24-hexamethyl-1,7,13,19-tetraoxa-4,10,16,22-tetraazacyclotetracosan-2,5,8,11,14,17,20,23-octaone]	0.003	0.0002	15	–	1.8	–	1 to 3.3
CCOc1ncccc1Cc1ccc(C[C@H]2OC(=O)[C@H](CC(C)C)N(C)C(=O)[C@@H](C)OC(=O)[C@H](CC(C)C)N(C)C(=O)[C@@H](Cc3ccc(Cc4cccnc4OCC)cc3)OC(=O)[C@H](CC(C)C)N(C)C(=O)[C@@H](C)OC(=O)[C@H](CC(C)C)N(C)C2=O)cc1 [Example 3-165, (3S,6R,9S,12R,15S,18R,21S,24R)-6,18-bis(4-((2-ethoxypyridin-3-yl)methyl)benzyl)-3,9,15,21-tetraisobutyl-4,10,12,16,22,24-hexamethyl-1,7,13,19-tetraoxa-4,10,16,22-tetraazacyclotetracosan-2,5,8,11,14,17,20,23-octaone]	0.2	0.001	200	–	> 100	–	–
CCN(CC)C(c1ccc(C[C@H]2OC(=O)[C@H](CC(C)C)N(C)C(=O)[C@@H](C)OC(=O)[C@H](CC(C)C)N(C)C(=O)[C@@H](Cc3ccccc3)OC(=O)[C@H](CC(C)C)N(C)C(=O)[C@@H](C)OC(=O)[C@H](CC(C)C)N(C)C2=O)cc1)c1ccc(F)c(F)c1 (stereo partly drawn) [Example 2-36, (3S,6R,9S,12R,15S,18R,21S,24R)-6-benzyl-18-(4-((diethylamino)(3,4-difluorophenyl)methyl)benzyl)-3,9,15,21-tetraisobutyl-4,10,12,16,22,24-hexamethyl-1,7,13,19-tetraoxa-4,10,16,22-tetraazacyclotetracosan-2,5,8,11,14,17,20,23-octaone]	0.03	0.0002	150	–	1	–	–
CC(C)C[C@H]1C(=O)O[C@H](Cc2ccc(Cc3occc3C#N)cc2)C(=O)N(C)[C@@H](CC(C)C)C(=O)O[C@H](C)C(=O)N(C)[C@@H](CC(C)C)C(=O)O[C@H](Cc2ccc(Cc3occc3C#N)cc2)C(=O)N(C)[C@@H](CC(C)C)C(=O)O[C@H](C)C(=O)N1C [Example 3-50, 2,2′-(((((2R,5S,8R,11 S,14R,17S,20R,23S)-5,11,17,23-tetraisobutyl-4,8,10,16,20,22-hexamethyl-3,6,9,12,15,18,21,24-octaoxo-1,7,13,19-tetraoxa-4,10,16,22-tetraazacyclotetracosane-2,14-diyl)bis(methylene))bis(4,1-phenylene))bis(methylene))bis(furan-3-carbonitrile)]	0.001	0.0001	10	< 1	0.3	≤ 1	–
